The source of these data is patent publication US9884806B2, “Cyclic vinylogous amides as bromodomain inhibitors” (ICAHN SCHOOL OF MEDICINE AT MOUNT SINAI, priority 2013, dated 2018).

One experiment addresses T1, BRD4_2 (Homo sapiens, UniProt O60885).
T1 construct: contains two tandem bromodomains (BrD1 and BrD2)
Description: Fluorescence anisotropy binding assay (competition with FITC-labeled MS417 probe), BRD4_2. As to conditions: FITC-MS417 probe 80 nM, PBS pH 7.4, 1 hour, 25° C. A general note: Polarisation of emitted light reports the rotation of a fluorescent probe.

The target of experiment [1] is T2, first bromodomain (BrD1) of human BRD4 (Homo sapiens, UniProt O60885).
T2 construct: the first bromodomain (BrD1) of human BRD4; poly-His (cleaved yes); made in house
Nature of the experiment: Fluorescence anisotropy binding assay (competition with FITC-labeled MS417 probe). Particulars: FITC-MS417 probe 80 nM, PBS pH 7.4, 1 hour, 25° C., read-out: BRD4_1 IC50. On the procedure:
Fluorescence Anisotropy Binding Assay
Expression and purification of the first bromodomain (BrD1) of human BRD4 in poly-His tag form was performed using a procedure described in the literature [See Zeng et al. Structure 16, 643-652 (2008) and Zhang et al., J Biol Chem 287, 28840-28851 (2012).] The protein was purified by using affinity chromatography on a nickel-IDA column (Invitrogen), followed by the removal of poly-His tag by thrombin cleavage.
Binding affinity of the newly synthesized compounds to the BRD4 BrD1 was assessed in a fluorescence anisotropy assay using a fluorescein isothiocyanate (FITC)-labeled MS417 as an assay probe (Zhang et al. 2008 op.cit.). Competition binding was performed with a BrD protein (0.25 to 1 μM) and the fluorescent probe (80 nM), and increasing concentration of unlabeled competing ligand in a PBS buffer (pH 7.4) in total volume of 80 μL. Measurements were obtained after 1 hour incubation of the fluorescent ligand and the protein at 25° C. with Safire 2 microplate reader (Tecan). In the assay, fluorescent ligand concentration was ≦2Kd, and protein concentration was set at which 50-80% of fluorescent ligand is bound. Dissociation constant of a competing ligand was calculated with the correction to Cheng-Prussoff equation introduced by Nicolovska-Coleska and colleagues [Nikolovska-Coleska, Z. et al., Anal Biochem 332, 261-273 (2004). Assuming one-site competitive binding model, the equation used to calculate Ki's from IC50 values recovered from fitting data using Prism:
[formula] where [I50] is the concentration of free inhibitor at 50% inhibition, [L50], the concentration of free labeled ligand at 50% inhibition, and [P0], concentration of free protein at 0% inhibition. Note that Kd for each protein-probe pair is the limit of resolvable Ki in a competition assay.

A word on the IC50: it is the concentration needed to halve the response being measured. Consider `COC(=O)c1ccc(NC2=CC(=O)CC2)cc1` [Example 01-1], for which the IC50 (on BRD4_2; in experiment [1]) was 1 to 10 µM throughout.

As for `NC(=O)c1ccc(NC2=CC(=O)CC2)cc1` [Example 01-2], the IC50 (at BRD4_2; in experiment [1]) was 1 to 10 µM throughout.

Take `CC1=C(Nc2cccc(C(=O)O)c2)CCC1=O` [Example 01-3]: the results for the IC50 (at BRD4_2; in experiment [1]) were 1 to 10 µM and more than 10 µM, respectively.

Turning to `COC(=O)c1cccc(NC2=C(C)C(=O)CC2)c1` [Example 01-4], the IC50 at BRD4_2 was more than 10 µM; in experiment [1] it was 1 to 10 µM.

Turning to `CC1=C(Nc2ccc(S(N)(=O)=O)cc2)CCC1=O` [Example 01-6], the IC50 (on BRD4_2; in experiment [1]) was more than 10 µM in each case.

For `CC1=C(Nc2ccc(C#N)cc2)CCC1=O` [Example 01-7], the IC50 (at BRD4_2; in experiment [1]) was more than 10 µM in each case.

For the compound `CC(=O)c1ccc(NC2=C(C)C(=O)CC2)cc1` [Example 01-9], the IC50 was more than 10 µM on BRD4_2 and 1 to 10 µM in experiment [1].

`COC(=O)c1ccc(NC2=C(C)C(=O)CC2)c(Cl)c1` [Example 01-11, methyl 3-chloro-4((2-methyl-3-oxocyclopent-1-en-1-yl)amino)benzoate]: the concentration for half-maximal inhibition (IC50) (at BRD4_2; in experiment [1]) was 1 to 10 µM in each case.

Consider `COC(=O)c1ccccc1NC1=C(C)C(=O)CC1` [Example 01-19, methyl 2-((2-methyl-3-oxocyclopent-1-en-1-yl)amino)benzoate], for which the IC50 (on BRD4_2; in experiment [1]) was more than 10 µM in each case.

For the compound `CC1=C(Nc2ccc(S(=O)(=O)Nc3ccccn3)cc2)CCC1=O` [Example 01-31, 4-((2-methyl-3-oxocyclopent-1-en-1-yl)amino)-N-(pyridin-2-yl)benzenesulfonamide], the IC50 (at BRD4_2; in experiment [1]) was 1 to 10 µM each time.

With `CC1=C(NC2CCN(C(=O)OC(C)(C)C)CC2)CCC1=O` [Example 01-32, tert-Butyl 4-((2-methyl-3-oxocyclopent-1-en-1-yl)amino)piperidine-1-carboxylate], the IC50 (on BRD4_2; in experiment [1]) was more than 10 µM in each case.

As for `CC1=C(N[C@H]2CC[C@H](C(=O)O)CC2)CCC1=O` [Example 01-33, trans-(1R,4R)-4-((2-methyl-3-oxocyclopent-1-en-1-yl)amino)cyclo6hexane-carboxylic acid], the IC50 (on BRD4_2; in experiment [1]) was more than 10 µM each time.

For `CC1=C(N[C@H]2CC[C@@H](C(=O)O)CC2)CCC1=O` [Example 01-34, cis-(1S,4S)-4-((2-methyl-3-oxocyclopent-1-en-1-yl)amino)cyclohexanecarboxylic acid], the IC50 (at BRD4_2; in experiment [1]) was more than 10 µM throughout.

Regarding `CC1=C(Nc2cccc(S(N)(=O)=O)c2)CCC1=O` [Example 01-45, 3((2-methyl-3-oxocyclopent-1-en-1-yl)amino)benzenesulfonamide], the 50% inhibitory concentration (IC50) (at BRD4_2; in experiment [1]) was 1 to 10 µM each time.

For the compound `CC1=C(Nc2cc(S(N)(=O)=O)ccc2Cl)CCC1=O` [Example 01-46, 4-chloro-3-((2-methyl-3-oxocyclopent-1-en-1-yl)amino)benzene-sulfonamide], the IC50 (on BRD4_2; in experiment [1]) was 1 to 10 µM each time.

Regarding `CC1=C(Nc2cccc(N)c2Cl)CCCC1=O` [Example 02-11, 3-((3-amino-2-chlorophenyl)amino)-2-methylcyclohex-2-enone], the figures for the IC50 (at BRD4_2; in experiment [1]) were more than 10 µM and 1 to 10 µM, respectively.

Regarding `CC1=C(Nc2ccc(N)cc2Cl)CCC1=O` [Example 02-14, 3-((4-amino-2-chlorophenyl)amino)-2-methylcyclopent-2-enone], the half-maximal inhibitory concentration (IC50) (at BRD4_2; in experiment [1]) was 1 to 10 µM throughout.

With `CC1=C(Nc2ccc(C(=O)Nc3ccccc3)cc2)CCC1=O` [Example 03-1], the IC50 (on BRD4_2; in experiment [1]) was 1 to 10 µM each time.

Regarding `CC1=C(Nc2ccc(C(=O)N(C)c3ccccc3)cc2)CCC1=O` [Example 03-2], the IC50 (at BRD4_2; in experiment [1]) was more than 10 µM each time.

`COc1ccc(NC(=O)c2ccc(NC3=C(C)C(=O)CC3)cc2)cc1` [Example 03-6]: the IC50 (on BRD4_2; in experiment [1]) was 1 to 10 µM in each case.
